Experiment [1] addresses Sodium-dependent dopamine transporter (Rattus norvegicus, UniProt P23977).
Experiment [2] concerns the target Norepinephrine transporter (Rattus norvegicus, UniProt Q9JIA2).
Experiment [3] concerns the target 5-hydroxytryptamine receptor 2A (Rattus norvegicus, UniProt P14842).
The target in experiment [4] is T1, Alpha-1A adrenergic receptor (Rattus norvegicus, UniProt P43140).
T1 sequence (P43140 whole entry): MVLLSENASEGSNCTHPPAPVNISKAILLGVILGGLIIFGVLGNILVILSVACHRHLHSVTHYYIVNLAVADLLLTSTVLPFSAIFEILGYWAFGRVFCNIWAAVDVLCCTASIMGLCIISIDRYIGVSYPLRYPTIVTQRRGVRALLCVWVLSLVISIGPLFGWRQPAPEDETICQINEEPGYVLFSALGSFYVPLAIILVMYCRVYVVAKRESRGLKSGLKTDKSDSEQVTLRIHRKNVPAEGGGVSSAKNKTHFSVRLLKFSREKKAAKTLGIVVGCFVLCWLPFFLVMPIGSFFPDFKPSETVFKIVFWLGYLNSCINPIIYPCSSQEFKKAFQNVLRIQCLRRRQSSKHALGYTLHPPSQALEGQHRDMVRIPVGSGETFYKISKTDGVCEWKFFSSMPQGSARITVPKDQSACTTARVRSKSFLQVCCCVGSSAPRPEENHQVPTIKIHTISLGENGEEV

Experiment [5] addresses Sodium-dependent serotonin transporter (Rattus norvegicus, UniProt P31652).

Several values for one entry are separate records, joined by “and”; a condition that tells them apart may be missing. Equal values may be shown once. Where a name gives a salt, the structure may show the parent alone. Bounds are passed on as bounds.

Chain of Sodium-dependent dopamine transporter (P23977 whole entry): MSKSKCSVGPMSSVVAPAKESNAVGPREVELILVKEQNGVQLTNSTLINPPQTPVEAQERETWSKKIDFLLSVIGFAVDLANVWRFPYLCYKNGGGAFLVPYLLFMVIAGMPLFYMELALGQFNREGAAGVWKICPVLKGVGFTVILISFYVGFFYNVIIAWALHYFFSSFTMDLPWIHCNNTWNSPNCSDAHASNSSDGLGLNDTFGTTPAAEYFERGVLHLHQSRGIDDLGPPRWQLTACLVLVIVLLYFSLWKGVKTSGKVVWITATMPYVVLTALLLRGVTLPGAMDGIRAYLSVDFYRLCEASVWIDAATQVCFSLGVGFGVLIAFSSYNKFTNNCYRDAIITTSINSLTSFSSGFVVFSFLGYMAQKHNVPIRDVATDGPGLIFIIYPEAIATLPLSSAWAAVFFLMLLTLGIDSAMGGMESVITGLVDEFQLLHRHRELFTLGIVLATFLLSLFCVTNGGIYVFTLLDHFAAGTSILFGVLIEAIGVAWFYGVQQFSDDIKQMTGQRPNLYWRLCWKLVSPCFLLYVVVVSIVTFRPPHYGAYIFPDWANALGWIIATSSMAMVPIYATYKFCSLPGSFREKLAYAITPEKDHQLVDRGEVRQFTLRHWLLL
Chain of 5-hydroxytryptamine receptor 2A (P14842 whole entry): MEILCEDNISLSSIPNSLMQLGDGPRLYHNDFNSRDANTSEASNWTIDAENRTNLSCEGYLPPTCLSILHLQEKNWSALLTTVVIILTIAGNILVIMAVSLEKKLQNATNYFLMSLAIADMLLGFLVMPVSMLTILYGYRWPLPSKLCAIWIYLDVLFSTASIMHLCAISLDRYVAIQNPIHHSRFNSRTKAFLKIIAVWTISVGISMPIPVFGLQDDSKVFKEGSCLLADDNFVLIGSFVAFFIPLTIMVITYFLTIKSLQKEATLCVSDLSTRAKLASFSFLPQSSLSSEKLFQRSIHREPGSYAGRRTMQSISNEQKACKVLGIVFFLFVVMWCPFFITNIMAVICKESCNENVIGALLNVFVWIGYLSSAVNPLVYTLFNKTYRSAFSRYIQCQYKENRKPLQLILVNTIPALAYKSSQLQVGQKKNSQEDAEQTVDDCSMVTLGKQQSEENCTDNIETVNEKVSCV
Chain of Sodium-dependent serotonin transporter (P31652 whole entry): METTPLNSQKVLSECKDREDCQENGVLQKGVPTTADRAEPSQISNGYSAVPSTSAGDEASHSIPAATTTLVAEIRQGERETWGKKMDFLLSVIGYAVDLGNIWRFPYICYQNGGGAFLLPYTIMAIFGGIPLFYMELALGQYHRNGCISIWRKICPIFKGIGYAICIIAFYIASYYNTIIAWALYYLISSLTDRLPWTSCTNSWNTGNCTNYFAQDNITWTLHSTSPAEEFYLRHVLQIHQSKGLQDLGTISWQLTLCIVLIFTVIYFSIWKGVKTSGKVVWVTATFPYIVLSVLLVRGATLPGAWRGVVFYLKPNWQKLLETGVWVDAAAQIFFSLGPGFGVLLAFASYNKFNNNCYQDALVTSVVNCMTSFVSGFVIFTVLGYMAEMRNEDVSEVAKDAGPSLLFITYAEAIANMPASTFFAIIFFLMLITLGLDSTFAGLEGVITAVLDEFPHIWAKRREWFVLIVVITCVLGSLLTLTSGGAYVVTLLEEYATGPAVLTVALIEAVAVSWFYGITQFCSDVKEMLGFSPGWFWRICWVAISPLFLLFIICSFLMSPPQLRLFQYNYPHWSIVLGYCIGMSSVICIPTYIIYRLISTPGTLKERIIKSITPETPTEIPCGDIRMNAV

`CSc1ccc(C2CN3CCCC3c3ccccc32)cc1` (stereo unspecified) came in with a Ki in experiment [1] of 69.8 nM.
In the case of `COCCCC/C(=N\OCCN)c1ccc(C(F)(F)F)cc1` [(1E)-5-methoxy-1-[4-(trifluoromethyl)phenyl]pentan-1-one O-(2-aminoethyl)oxime], the Ki is greater than 10000 nM in experiment [1] and 299 nM in experiment [2].
For the compound `CN(C)CCCN1c2ccccc2CCc2ccc(Cl)cc21` [CLOMIPRAMINE HYDROCHLORIDE], affinity in experiment [1] was put at a Ki of 3810 nM.
Turning to `CSc1ccc([C@H]2CN3CCC[C@H]3c3ccccc32)cc1` [McN-5652-X-68], the inhibitory constant (Ki) in experiment [3] stood at 142 nM; in experiment [4], 274 nM.
Take `c1ccc2c(CCC3CCNCC3)c[nH]c2c1`: the Ki in experiment [5] came out at 1.72 nM; in experiment [1], 1040 nM; in experiment [3], 50.2 nM; in experiment [2] it was 513 nM.
Consider `COCCCCC(=NOCCN)c1ccc(Cl)cc1` [CAS_68717], for which the Ki in experiment [5] is 2.76 nM; in experiment [1], 462 nM; in experiment [3], 1000 nM; in experiment [2], 6.6 nM.
In experiment [1], `COc1ccc(OC[C@H]2CN(C)CC[C@@H]2c2ccccc2)cc1` [(3R,4S)-3-(4-Methoxy-phenoxymethyl)-1-methyl-4-phenyl-piperidine] came in with a Ki of 1040 nM.
Take `CN(C)C/C=C(/c1ccc(Br)cc1)c1cccnc1` [cis-[3-(4-Bromo-phenyl)-3-pyridin-3-yl-allyl]-dimethyl-amine;HCl]: the Ki in experiment [1] was greater than 10000 nM.
On to `O=c1n(CCCN2CCN(c3cccc(Cl)c3)CC2)nc2ccccn12` [2-{3-[4-(3-chlorophenyl)piperazin-1-yl]propyl}[1,2,4]triazolo[4,3-a]pyridin-3(2H)-one], for which the figures for the Ki in experiment [1], in experiment [4] and in experiment [2] were greater than 10000 nM, 84 nM and 3800 nM, respectively.
Take `CSc1ccc([C@@H]2CN3CCC[C@@H]3c3ccccc32)cc1` [McN-5652-Z-68]: the Ki in experiment [3] is 939 nM and 208 nM; in experiment [4], 213 nM and 314 nM.
